Source: patent US20250275969A1, “METHODS OF TREATING MALIGNANT PERIPHERAL NERVE SHEATH TUMOR (MPNST) USING LSD1 INHIBITORS” (ORYZON GENOMICS, S.A., priority 2022, published 2025)

Key:
Type in all cases: cell-based
sNF02.2 = assay: MPNST viability assay (6 days, MTT or AlamarBlue); conditions: for EC50: cell viability, sNF02.2, 6 days of treatment
Method: (§1) Mycoplasma-free MPNST cell lines (see Table 1) were seeded in 50 μl/well of complete medium (DMEM high glucose supplemented with 1× GlutaMAX™, 1× sodium pyruvate and 10% fetal bovine serum (FBS), Thermo Fisher) in 96-well plates at the optimal cell density to ensure log-phase growth throughout the duration of the experiment (see Table 1). The day after seeding, 50 μl of medium containing 9 serial dilutions (1:3) of 2×-concentrated iadademstat (LSD1 inhibitor; used as the dihydrochloride salt) were added to the cells to obtain 100 μl of cells treated with 1×-concentrated compound at each dilution. Etoposide (topoisomerase II/DNA synthesis inhibitor) was also included as a positive control of the assay. Additionally, from the MPNST cell line panel, two cell lines (sNF96.2 and sNF02.2) were selected to evaluate the effect of other LSD1 inhibitors, i.e. bomedemstat (bis-tosylate salt) and pulrodemstat (besylate salt). Each experimental condition was tested in technical triplicates, including medium-only wells and vehicle-treated controls for background correction and normalization, respectively. After treatment, cells were incubated at 37° C. in a humidified and controlled 5% CO2 atmosphere for 72 h. At this time-point, compound and medium refreshment was performed by adding 50 μl of medium supplemented with 1×-concentrated compound at each corresponding dilution. Cells were incubated for additional 72 h (for a total of 6 days) prior to evaluating cell viability using either the MTT assay (Sigma-Aldrich) or AlamarBlue™ Cell viability reagent (Life Technologies), following manufacturer's instructions. Background was calculated as the mean of the values of medium-only controls and subtracted from each data point. The average of background-corrected technical triplicates was calculated and normalized by the mean of vehicle-treated controls (corresponding to 100% of viability). Data were analyzed using GraphPad PRISM® version 9.0.1 (GraphPad Software, Inc., La Jolla, CA/USA) to calculate the best-fitting curves and the EC50 values (corresponding to the concentration of compound at which a half (50%) maximal effect is obtained; lower EC50 values thus indicate greater potency).
(§2) LSD1 inhibitors such as iadademstat have been reported to exert their therapeutic effect by inducing cancer cell differentiation and inhibiting cancer cell proliferation rather than by killing cancer cells (Sacilotto N et al., ACS Pharmacol Transl Sci, 2021, 4(6):1818-34, doi: 10.1021/acsptsci.1c00223). In line with this, a cancer cell viability reduction of more than 30% reflects a potent therapeutic effect of the corresponding LSD1 inhibitor. In the present experiment, the response obtained after LSD1 inhibitor treatment was therefore classified into the following three groups: (1) strong response (viability reduction >30%); (2) medium response (viability reduction >15% and <30%); (3) low response (viability reduction <15%). Table 3 summarizes the EC50 values obtained for etoposide (the positive control of the assay) and iadademstat together with the classification according to viability reduction after LSD1 inhibitor treatment.

sNF96.2 = assay: MPNST viability assay (6 days, MTT or AlamarBlue); conditions: for EC50: cell viability, sNF96.2, 6 days of treatment
Method: as §1, §2

MPNST-NF1-09 = assay: MPNST viability assay (6 days, MTT or AlamarBlue)
Method: as §1, §2

MPNST-NF1-18b = assay: MPNST viability assay (6 days, MTT or AlamarBlue); conditions: for EC50: cell viability, 6 days of treatment
Method: as §1, §2

MPNST-SP-01 = assay: MPNST viability assay (6 days, MTT or AlamarBlue)
Method: as §1, §2

NMS-2 = assay: MPNST viability assay (6 days, MTT or AlamarBlue)
Method: as §1, §2

HS-PSS = assay: MPNST viability assay (6 days, MTT or AlamarBlue); conditions: for EC50: cell viability, 6 days of treatment
Method: as §1, §2

MPNST-SP-10 = assay: MPNST viability assay (6 days, MTT or AlamarBlue); conditions: for EC50: cell viability, MPNST-SP-10, 6 days of treatment
Method: as §1, §2

90-8TL = assay: MPNST viability assay (6 days, MTT or AlamarBlue); conditions: for EC50: cell viability, 6 days of treatment
Method: as §1, §2

ST88-14 = assay: MPNST viability assay (6 days, MTT or AlamarBlue); conditions: for EC50: cell viability, ST88-14, 6 days of treatment
Method: as §1, §2

MPNST-NF1-08 = assay: MPNST viability assay (6 days, MTT or AlamarBlue)
Method: as §1, §2

S462 = assay: MPNST viability assay (6 days, MTT or AlamarBlue); conditions: for EC50: cell viability, S462, 6 days of treatment
Method: as §1, §2

[1] = system: panel of 12 MPNST cell lines; assay: MPNST viability assay, summary over the cell line panel
Method: as §1
A panel of 12 MPNST cell lines was used to evaluate the effects of the LSD1 inhibitor iadademstat on MPNST cell viability after 6 days of treatment, and etoposide was used as a positive control of the assay. In order for the in vitro experiments to reliably mirror the situation in the clinical setting, where MPNST patients feature a great genomic heterogeneity, a panel of different types of MPNST cell lines was used. The panel comprises both MPNST immortalized lines and MPNST cell lines derived from patients. […]

[2] = viability reduction class, 6 days

`CN1CCN(C(=O)[C@H](CCCN[C@@H]2C[C@H]2c2ccc(F)cc2)NC(=O)c2ccc(-n3ccnn3)cc2)CC1` [Bomedemstat, N-[(2S)-5-{[(1R,2S)-2-(4-fluorophenyl)cyclopropyl]amino}-1-(4-methylpiperazin-1-yl)-1-oxopentan-2-yl]-4-(1H-1,2,3-triazol-1-yl)benzamide] was tested, and the EC50 (sNF02.2; 144 h) was 0.094 nM and the EC50 (sNF96.2; 144 h) was 1.28 nM.

Work on `COc1ccc(-c2c(-c3ccc(C#N)c(F)c3)nc(N3CCC(N)CC3)n(C)c2=O)cc1F` [Pulrodemstat, 4-[2-(4-aminopiperidin-1-yl)-5-(3-fluoro-4-methoxyphenyl)-1-methyl-6-oxo-1,6-dihydropyrimidin-4-yl]-2-fluorobenzonitrile] yielded an EC50 (sNF02.2; 144 h) of 0.166 nM and an EC50 (sNF96.2; 144 h) of 0.261 nM.

`COc1cc([C@@H]2c3cc4c(cc3[C@@H](O[C@@H]3O[C@@H]5CO[C@@H](C)O[C@H]5[C@H](O)[C@H]3O)[C@H]3COC(=O)[C@H]23)OCO4)cc(OC)c1O` [etoposide] showed an EC50 (sNF02.2) of 144 nM, an EC50 (MPNST-NF1-09; cell viability, MPNST-NF1-09, 6 days of treatment) of 737 nM and an EC50 (MPNST-NF1-18b) of 394 nM. It also gave an EC50 (MPNST-SP-01; cell viability, MPNST-SP-01, 6 days of treatment) of 1030 nM, an EC50 (NMS-2; cell viability, NMS-2, 6 days of treatment) of 154 nM and an EC50 (HS-PSS) of 205 nM. The EC50 (sNF96.2) was 108 nM, the EC50 (MPNST-SP-10) was 269 nM and the EC50 (90-8TL) was 164 nM. It also gave an EC50 (ST88-14) of 788 nM, an EC50 (MPNST-NF1-08; cell viability, MPNST-NF1-08, 6 days of treatment) of 740 nM and an EC50 (S462) of 376 nM.

With `N[C@H]1CC[C@H](N[C@@H]2C[C@H]2c2ccccc2)CC1` [iadademstat, (trans)-N1-((1R,2S)-2-phenylcyclopropyl)cyclohexane-1,4-diamine] the EC50 (sNF02.2; 144 h) was 0.017 nM, the “potency among the LSD1 inhibitors tested (in words)” value (sNF02.2; sNF02.2, compared with bomedemstat and pulrodemstat) was “highest potency” and the “Response to iadademstat (viability assay)” value (“Response to iadademstat” for short) (sNF02.2; viability reduction class, sNF02.2, 6 days) was “Medium response (medium response (viability reduction >15% and <30%))”. The “Response to iadademstat” value (MPNST-NF1-09; viability reduction class, MPNST-NF1-09, 6 days) was “Low response (low response (viability reduction <15%))”, the EC50 (MPNST-NF1-18b; 144 h) was 0.025 nM and the “Response to iadademstat” value (MPNST-NF1-18b; [2]) was “Strong response (strong response (viability reduction >30%))”. For the same compound, the “Response to iadademstat” value (MPNST-SP-01; viability reduction class, MPNST-SP-01, 6 days) was “Low response (low response (viability reduction <15%))”, the “Response to iadademstat” value (NMS-2; viability reduction class, NMS-2, 6 days) was “Low response (low response (viability reduction <15%))” and the EC50 (HS-PSS; 144 h) was 0.046 nM. The “Response to iadademstat” value (HS-PSS; [2]) was “Medium response (medium response (viability reduction >15% and <30%))”, the EC50 (sNF96.2; 144 h) was 0.042 nM and the “potency among the LSD1 inhibitors tested (in words)” value (sNF96.2; sNF96.2, compared with bomedemstat and pulrodemstat) was “highest potency”. The “Response to iadademstat” value (sNF96.2; viability reduction class, sNF96.2, 6 days) was “Strong response (strong response (viability reduction >30%))”, the EC50 (MPNST-SP-10; 144 h) was 0.033 nM and the “Response to iadademstat” value (MPNST-SP-10; viability reduction class, MPNST-SP-10, 6 days) was “Medium response (medium response (viability reduction >15% and <30%))”. The EC50 (90-8TL; 144 h) was 0.026 nM, the “Response to iadademstat” value (90-8TL; [2]) was “Medium response (medium response (viability reduction >15% and <30%))” and the EC50 (ST88-14; 144 h) was 0.039 nM. For the same compound, the “Response to iadademstat” value (ST88-14; viability reduction class, ST88-14, 6 days) was “Medium response (medium response (viability reduction >15% and <30%))”, the “Response to iadademstat” value (MPNST-NF1-08; viability reduction class, MPNST-NF1-08, 6 days) was “Low response (low response (viability reduction <15%))” and the EC50 (S462; 144 h) was 0.087 nM. For the same compound, the “Response to iadademstat” value (S462; viability reduction class, S462, 6 days) was “Strong response (strong response (viability reduction >30%))”, the “cell lines showing a strong viability reduction” value ([1]; 3 out of 12 cell lines, 6-day treatment) was 25% and the “cell lines showing a medium viability reduction” value ([1]; 5 out of 12 cell lines, 6-day treatment) was 41.67%. For the same compound, the “EC50 values (in words)” value ([1]; medium- and strong-responding cell lines) was “subnanomolar” and the “medium- and strong-responding cell lines, total” value ([1]; of 12 cell lines, 6-day treatment) was 66.67%.
